Experimental data from patent US20060183794A1, “Drug composition containing nf-kb inhibitor” (priority 2002, published 2006).

What was measured:
NF-κB = NF-κB (Homo sapiens, UniProt P19838+Q04206); test: Gel shift assay of constitutive NF-κB activation in ATL cell lines; format: cell-based; parameters: endogenous in cells; settings: MT-1 and TL-Om1; 10 μg/ml DHM2EQ, 12 hours
Procedure: The ATL cell lines (MT-1 and TL-Om1) and the control cell lines (K562 and Jurkat+TNF), 2×10^6 cells each, were treated with 10 μg/ml DHM2EQ for 12 hours, and nuclear extract was prepared from each cell line. Likewise, nuclear extract was prepared also from the cell lines not treated with DHM2EQ. MT-1 and TL-Om1 are the cell lines transformed with HTLV-1; NF-κB is activated in these cell lines. K562 (myelocytic leukemia cell line) is a cell line in which constitutive NF-κB is not confirmed (a negative control), and Jurkat+TNF is a […] consensus oligomers (Promega) were end-labeled with [γ-^32P]-ATP and polynucleotide kinase (PNK) to prepare ^32P-labeled NF-κB probes.
The equivalent of 2 μg of nuclear extract protein was mixed with NF-κB probes (the equivalent of 10,000 cpm) in a volume of 20 μl and reacted at room temperature for 30 min. The solution after the reaction was subjected to 7.5% polyacrylamide gel electrophoresis. The gel was then dried and exposed to an X-ray film.

[1] = test system: ATL cell lines (MT-1 and TL-Om1); test: Hoechst staining apoptosis assay, ATL cell lines; format: cell-based, human; settings: 10 μg/ml, 72 hours
Procedure: DHM2EQ was added to the ATL cell lines (MT-1 and TL-Om1) and a control cell line (K562) at a final concentration of 10 μg/ml, followed by incubation for 72 hours. Subsequently, apoptosis was examined by observing nuclear […] or fragmentation on Hoechst staining with a fluorescence microscope. Cells to which the solvent DMSO had been added in equal volume were also examined in the same manner.

[2] = test system: MM cell lines, KMM1, RPMI8226, and U266; test: MTT assay, proliferation of multiple myeloma cell lines; format: cell-based
Procedure: Cells from the ATL cell lines (MT-1 and TL-Om1) and a control cell line (K562) were plated in 96-well plates at 1×10^5 cells/well and DHM2EQ was added at the desired final concentrations (2, 5, and 10 μg/ml). Cells to which the solvent DMSO had been added in equal volume (0 μg/ml) were used as […] incubation for 72 hours, cell viability was judged by the MTT assay. Relative MTT values were obtained as the ratio of the MMT values of DHM2EQ-treated cells to those of DHM2EQ-untreated cells, i.e., (MTT values of DHM2EQ-treated cells/MTT values of DHM2EQ-untreated cells)×100(%).
DHM2EQ was added to the ATL cell lines (MT-1 and TL-Om1) and a control cell line (K562) at a final concentration of 10 μg/ml and the cells were incubated for 12, 24, 48, and 72 hours. The proliferation-inhibitory effect was examined by the MTT assay. Cells to which the solvent DMSO had been added in equal volume were used as controls. Relative MTT values were obtained in the same manner as the aforementioned (1).
To investigate the influence of the DHMEQ concentrations on inhibition of cell proliferation, the cell viability was judged by using the MM cell lines, KMM1, RPMI8226, and U266 in the same method as in Example 5-(1). […]

[3] = test system: normal peripheral blood mononuclear cells; test: MTT assay, normal peripheral blood mononuclear cells; format: cell-based, human
Procedure: Mononuclear cells were isolated from normal peripheral blood and DHM2EQ was added at final concentrations of 2, 5, and 10 μg/ml, followed by 72-hour incubation. The proliferation-inhibitory effect was examined by the MTT assay. Cells to which the solvent DMSO had been added in equal volume (0 μg/ml) were used as controls. The cell viability was represented as the ratio to the MTT value of the controls (DHM2EQ-untreated) by letting it=100%.
Next, to investigate the inhibitory effect of DHMEQ on proliferation of cells of multiple myeloma (MM) patients, MM cells (MM1, MM2, and MM3) were isolated from patients' bone marrow, incubated for 48 hours at the DHMEQ concentration of 10 μg/ml, and the proliferation-inhibitory effect was examined by the MTT assay. Peripheral blood mononuclear cells (PBMC) isolated from normal peripheral blood were used as control cells. In the figure, the vertical axis indicates the relative values of the MTT values of treated cells versus untreated cells, i.e., (DHMEQ-treated/untreated)×100%.

[4] = test system: ATL cells of ATL patients; test: MTT assay, ATL cells from peripheral blood of ATL patients; format: cell-based, human; settings: three cases; 10 μg/ml, 24 hours
Procedure: Mononuclear cells were isolated from peripheral blood cells of ATL patients and ATL cells were isolated. DHM2EQ was added to the isolated ATL cells of three cases at a final concentration of 10 μg/ml and the cells were incubated for 24 hours. The proliferation-inhibitory effect was examined by the MTT assay. Using the cells to which solvent DMSO had been added in equal volume as controls, the proliferation-inhibitory effect was evaluated by the ratio of the MMT values of DHM2EQ-treated cells to those of DHM2EQ-untreated cells, i.e., (MTT values of DHM2EQ-treated cells/MTT values of DHM2EQ-untreated cells).

NF-κB, sequence (Q04206 whole entry): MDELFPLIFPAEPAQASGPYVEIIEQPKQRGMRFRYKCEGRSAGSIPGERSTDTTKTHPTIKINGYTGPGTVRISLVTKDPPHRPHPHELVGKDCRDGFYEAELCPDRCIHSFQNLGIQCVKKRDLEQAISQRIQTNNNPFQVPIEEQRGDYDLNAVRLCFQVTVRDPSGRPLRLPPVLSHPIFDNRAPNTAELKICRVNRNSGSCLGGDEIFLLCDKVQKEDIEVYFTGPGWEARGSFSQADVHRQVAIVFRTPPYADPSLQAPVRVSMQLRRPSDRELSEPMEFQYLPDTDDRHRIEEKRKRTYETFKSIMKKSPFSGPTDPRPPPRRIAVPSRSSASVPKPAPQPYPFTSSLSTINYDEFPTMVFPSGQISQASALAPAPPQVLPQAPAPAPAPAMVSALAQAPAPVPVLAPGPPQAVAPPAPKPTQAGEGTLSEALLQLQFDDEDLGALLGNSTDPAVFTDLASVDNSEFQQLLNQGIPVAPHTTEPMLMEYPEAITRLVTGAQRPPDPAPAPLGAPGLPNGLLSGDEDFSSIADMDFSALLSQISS
NF-κB, sequence (P19838 1-433 limits assumed): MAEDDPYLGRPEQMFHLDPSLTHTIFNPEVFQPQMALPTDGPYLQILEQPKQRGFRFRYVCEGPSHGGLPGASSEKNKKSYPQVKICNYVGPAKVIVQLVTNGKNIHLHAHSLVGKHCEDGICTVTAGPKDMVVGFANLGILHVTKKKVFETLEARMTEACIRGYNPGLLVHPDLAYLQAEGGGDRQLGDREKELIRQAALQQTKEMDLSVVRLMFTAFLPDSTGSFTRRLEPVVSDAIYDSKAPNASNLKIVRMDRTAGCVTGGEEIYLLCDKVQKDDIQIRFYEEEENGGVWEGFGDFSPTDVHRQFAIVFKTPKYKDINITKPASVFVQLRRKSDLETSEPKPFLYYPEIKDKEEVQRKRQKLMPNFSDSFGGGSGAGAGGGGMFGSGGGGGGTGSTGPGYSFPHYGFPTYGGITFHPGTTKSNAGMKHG

O=C(NC1=CC(=O)C2OC2C1O)c1ccccc1O (stereo not shown) [DHMEQ, 5,6-epoxy-4-hydroxy-3-salicyloylamino-2-cyclohexenone]
signal of NF-κB (gel shift) (NF-κB): almost lost
apoptosis (nuclear fragmentation, Hoechst staining) [1]: apoptosis was induced
cell proliferation, concentration dependence (MTT) [2]: suppressed in proportion to the DHMEQ concentrations
cell proliferation, time course (MTT) [2]: suppressed in proportion to the DHMEQ treatment time
proliferation of normal peripheral blood mononuclear cells (MTT) ([3]; 2, 5, 10 μg/ml, 72 hours): almost no inhibitory effect
influence on peripheral blood mononuclear cells (MTT) ([3]; PBMC control, 10 μg/ml, 48 hours): almost no influence
proliferation of ATL cells obtained from patients (MTT) [4]: exhibits an inhibitory effect
